This passage reports EC50 and IC50 results from patent US9067938B2, “Pyrazolopyridinone derivatives as LPA receptor antagonists” (Merck Patent GmbH, priority 2010, dated 2015).

The EC50 is the concentration needed to bring the measured effect to its halfway point. Usually IC50 stands for the point on the concentration scale where inhibition reaches its midpoint.

Sequence of LPA2 receptor (Q9HBW0 whole entry): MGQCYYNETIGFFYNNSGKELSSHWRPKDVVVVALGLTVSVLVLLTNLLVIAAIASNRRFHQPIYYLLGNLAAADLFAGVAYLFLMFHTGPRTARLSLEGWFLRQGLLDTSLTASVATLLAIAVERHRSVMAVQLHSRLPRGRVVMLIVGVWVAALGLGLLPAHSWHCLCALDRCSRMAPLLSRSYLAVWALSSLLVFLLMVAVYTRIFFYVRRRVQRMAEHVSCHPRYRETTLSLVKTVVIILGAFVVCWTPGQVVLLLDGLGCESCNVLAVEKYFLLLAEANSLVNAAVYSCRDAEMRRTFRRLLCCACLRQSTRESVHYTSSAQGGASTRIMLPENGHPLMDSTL

One assay deals with T1, P2Y10-Gα16 (Homo sapiens, UniProt O00398).
T1 construct: "P2Y10-Gα16"; fused on or other part: The promiscuous G-protein alpha subunit G alpha 16 (GNA15) is fused to the receptor; By the printed name order it probably sits at the C-terminus; It is a coupling handle and not part of the key
T1 sequence (O00398 whole entry, the tested form may be a part): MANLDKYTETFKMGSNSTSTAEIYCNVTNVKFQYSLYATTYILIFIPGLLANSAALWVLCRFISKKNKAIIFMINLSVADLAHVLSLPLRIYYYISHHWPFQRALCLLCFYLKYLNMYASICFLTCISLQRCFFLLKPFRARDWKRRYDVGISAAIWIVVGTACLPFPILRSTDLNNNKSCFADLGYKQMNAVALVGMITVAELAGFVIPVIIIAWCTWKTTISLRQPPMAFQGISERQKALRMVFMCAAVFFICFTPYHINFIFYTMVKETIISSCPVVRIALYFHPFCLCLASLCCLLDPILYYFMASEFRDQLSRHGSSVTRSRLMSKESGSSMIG
Assay: not given
The conditions noted are these: induction of Ca2+ transients via P2Y10-Gα16; cited from earlier work.
`CCCCCCCCCCCCC/C=C/[C@@H](O)[C@@H](N)COP(=O)(O)O` [Compound S1P, sphingosine 1-phosphate]: the EC50 is 0.053 µM.

Take Lysophosphatidic acid [LPA]: the EC50 is 0.13 µM.

Another assay concerns the target LPA2 receptor (Homo sapiens, UniProt Q9HBW0). Briefly: LPA2R-calciumflux assay. It counts as cell-based. The conditions noted are these: U2OS cells recombinant expressing LPA2R; LPA-induced intracellular calcium signal (FLIPR Tetra); 10 concentrations from 30 uM to 1 nM, 1% DMSO. From the text: Description of the LPA2R Assay
Cell Cultivation/Propagation
LPA2R-calciumflux Assay Protocol
The assay detects intra cellular calcium which is generated by cells upon activation of the LPA2 receptor by its ligand LPA. This transient calcium mobilisation can be monitored using a commercial calcium detection kit (e.g. from Molecular Devices). The main component of such a kit is a dye, which becomes fluorescent when calcium is present—a transient fluorescence signal after laddition of a ligand to a test well are the result. Readers like the FLIPR (from Molecular Devices) can be used to monitor such transient “Ca-flux” signals.
The signals are calculated according to peak maximum minus base line. Compounds which are antogonists of LPA lead to a decreased mobilisation of intracellular calcium and thus to a lower signal. The assay is performed in microplates (384 wells per plate).
The assay itself is run according to the following procedure: • 50 uL seed cells (10000 cells/well in DMEM buffer) • Incubate 24 h at 37° C., 10% CO2 • aspirate medium • 50 uL add calcium dye 1×HBSS/HEPES buffer • incubate 1 h at 37° C. (“loading”) • equilibrate 10 min at RT • 5 uL add compounds in HEPES buffer • shake 10 sec. @ 1000 rpm • incubate 15 min at RT • 20 uL add LPA (in the FLIPR Tetra) in KREBS-Puffer/BSA & measurement
The cells are seeded in DMEM buffer (DMEM, 10% FCS, 10 mM HEPES, 1% Pen/Strep).
Dye loading is done in HBSS/HEPES buffer (100 mL 10×HBSS+20 mL 1M HEPES+880 mL water, pH 7.4)
The LPA is added in Krebs/BSA buffer (120 mM NaCl, 5 mM KCl, 0.62 mM MgSO4, 1.8 mM CaCl2, 10 mM HEPES, 6 mM D(+)-Glucose, 0.2% BSA, pH 7.4).
The compounds are pre-diluted in HEPES buffer (20 mM, pH 7.4), whereby the final DMSO content in the assay is kept at 1%. The compounds are pre-diluted in order to generate dose response series on the microplates. The dose response series consist of 10 concentrations for each compound from 30 uM final to 1 nM final. From all compound wells the resulting signals are referred to control wells (located on each plate besides the compound wells) in terms of % activity.
[formula] From these % activity values—along with the corresponding compound concentrations—IC50 values are fitted for each compound using standard fitting programs such as Graphpad Prism. Here the method “log(inhibitor) vs. response—Variable slope” is used. Reader Settings (FLIPR Tetra) • ExcWLength:470—495 • Em.Wlength: 515—575 • Gain: 50 • Exp. Time: 0,4 • Exc.Intensity: 80 • READ with TF • First read interval: 1,00 s • Number of first reads: 240 • Reads before dispense: 10 • Second read interval: 1,00 s • Number of second reads: 0 • Save Images No
For the compound `O=C1CC(O)(C(F)(F)F)c2c(-c3cccc(Br)c3)n[nH]c2N1` (stereo not drawn) [Compound 13, 3-(3-Bromo-phenyl)-4-hydroxy-4-trifluoromethyl-1,4,5,7-tetrahydro-pyrazolo[3,4-b]pyridin-6-one], the IC50 was < 1 µM.

`O=C1CC(O)(C(F)(F)F)c2c(-c3cccs3)n[nH]c2N1` (stereo not drawn) [Compound 8, 4-Hydroxy-3-thiophen-2-yl-4-trifluoromethyl-1,4,5,7-tetrahydro-pyrazolo[3,4-b]pyridin-6-one]: the IC50 is < 1 µM.

On to `Cn1nc(-c2ccccc2)c2c1NC(=O)CC2(O)C(F)(F)F` (stereo not drawn) [Compound 4, 4-Hydroxy-1-methyl-3-phenyl-4-trifluoromethyl-1,4,5,7-tetrahydro-pyrazolo[3,4-b]pyridin-6-one], for which the IC50 is > 10 µM.

`O=C1CC(O)(C(F)(F)F)c2c(-c3ccc(Br)cc3)n[nH]c2N1` (stereo not drawn) [Compound 12, 3-(4-Bromo-phenyl)-4-hydroxy-4-trifluoromethyl-1,4,5,7-tetrahydro-pyrazolo[3,4-b]pyridin-6-one]: the IC50 was > 10 µM.

In the case of `CCC1C(=O)Nc2[nH]nc(-c3ccccc3)c2C1(O)C(F)(F)F` (stereo not drawn) [Compound 25, 4-Hydroxy-5-ethyl-3-phenyl-4-trifluoromethyl-1,4,5,7-tetrahydro-pyrazolo[3,4-b]pyridin-6-one], the IC50 is > 10 µM.

For `CC1C(=O)Nc2[nH]nc(-c3ccccc3)c2C1(O)C(F)(F)F` (stereo not drawn) [Compound 24, 4-Hydroxy-5-methyl-3-phenyl-4-trifluoromethyl-1,4,5,7-tetrahydro-pyrazolo[3,4-b]pyridin-6-one], the IC50 lay within 1 to 10 µM.

As for `O=C1CC(O)(C(F)(F)F)c2c(-c3ccc(Cl)cc3)n[nH]c2N1` (stereo not drawn) [Compound 5, 3-(4-Chloro-phenyl)-4-hydroxy-4-trifluoromethyl-1,4,5,7-tetrahydro-pyrazolo[3,4-b]pyridin-6-one], the IC50 lay in the range of 1 to 10 µM.
